From publication PMC6389928, “Biomolecular Interaction, Anti-Cancer and Anti-Angiogenic Properties of Cobalt(III) Schiff Base Complexes” (Scientific Reports, 2019)
Where two headings read alike, the source gives them in different places.

Legend:
CT-DNA = test: Cyclic voltammetry in the absence and presence of CT-DNA; assay type: binding; settings: absence of DNA, 0.5% DMSO/PBS, glassy carbon vs saturated calomel; for cathodic peak potential Epc: Co(III) to Co(II)
Description: Electrochemical studies of complexes 1 and 2 were recorded in 0.5% DMSO/PBS buffer solution, with glassy carbon as working electrode vs saturated calomel as reference electrode and Pt wire as auxiliary electrode. […] On addition of CT-DNA to each cobalt complex solution, no new peak appeared. […] The decrease in voltammetric current in the presence of CT- DNA is possibly due to the diffusion of the complexes 1 and 2 bound to the large, slowly diffusing DNA molecule[39],[40]. The positive shifts indicate that complexes 1 and 2 bind to DNA through intercalation as observed in the spectroscopic studies[39],[40].
For cyclic voltammetry experiments, the electrode surfaces were freshly polished with alumina powder and then sonicated in ethanol and distilled water for 1 min prior to each experiment and the electrode was rinsed with doubly distilled water thoroughly between each polishing step. Finally, each electrode was cleaned thoroughly in an ultrasonic cleaner again with doubly distilled water. Cyclic voltammetric experiments were performed at room temperature in […] in a single compartment cell with a three-electrode configuration, namely, glassy carbon working electrode, platinum wire auxiliary electrode and saturated calomel as reference electrode. Before experiments, all solutions were deaerated with dry nitrogen gas for 10 min to remove dissolved oxygen and kept in nitrogen atmosphere throughout the experiments.

DNA = test: Viscosity measurement of DNA; assay type: binding; settings: 30.0 ± 0.2 °C, increasing amounts of compound
Excerpt: The mode of interaction between DNA and complexes has been further confirmed using viscosity measurements. The intercalation between DNA and metal complex causes lengthening of the DNA helix and increases DNA’s relative viscosity. Ethidium bromide (EB) is a well known DNA intercalator which was used as a standard to make sure our viscosity determination was working properly. […] The increase in relative viscosity follows the DNA-intercalating ability and the order of relative viscosity is EB > 2 > 1.
CD spectra of CT–DNA in the absence and presence of cobalt(III) complexes 1 and 2 were recorded in phosphate buffer. Each sample solution was scanned in the range of 200–320 nm, and final CD spectra were generated after averaging three scans subtracting the buffer background. Viscosity experiments were performed using an Ubbelohde viscometer at a constant temperature (30.0 ± 0.2 °C).

[1] = test system: monkey kidney epithelial cell Vero; test: MTT assay on Vero cells
Excerpt: The anti-proliferative property of the complexes 1 and 2 at different concentrations on A549 lung carcinoma cell and monkey kidney epithelial cell Vero was examined by adopting MTT assay (Fig. S7). […] The naked cobalt acetate and ligands salen and salophen were separately tested on A549 cells to understand if metal chelation is the principal basis of the anticancer activity of the complexes.
Culture: Human lung cancer cells (A549) were received from National Centre for Cell Science (NCCS) Pune, India. Vero cells were obtained from ATCC. The cells were grown at humidified atmosphere of 5% CO2 in an incubator at 37 °C (Forma, Thermo Scientific, USA) in DMEM medium (Invitrogen) containing 10% FBS (Sigma-Aldrich, St. Louis, Mo, USA), 100 μg/mL of penicillin and 100 μg/mL streptomycin were used as antibiotics (Himedia, Mumbai, India). […] The cells were seeded in 96 well plates (5000 A549 cells per well) and allowed to attach for 24 h. The cells were then incubated with different concentrations of the metal complexes 1 and 2 dissolved in 100% dimethyl sulfoxide (DMSO) (Sigma-Aldrich) and prepared to a final dilution of 0.02% of DMSO.
In the determination of IC50 value, 0.02% DMSO was used as the solvent control. After the end of incubation period (24 h), the medium was aspirated carefully and replaced with new medium. The formazan formed was dissolved in100 μL of 100% DMSO to each well. […]

[2] = test system: developing blood vessels of the chicken chorioallantoic membrane; test: Chicken chorioallantoic membrane (CAM) assay; assay type: in vivo; settings: for inhibition of vessel formation: 10 µM on filter paper discs, end of incubation (6 h); for angiogenic parameters (vessel size, vessel length, number of vessel branches): 10 µM, angioquant software, compared to control
Description: Chicken chorioallantoic membrane (CAM) assay is a well-known in vivo angiogenesis assay. To confirm the anti-angiogenic properties of cobalt complexes 1 and 2, CAM assay was performed. The complexes 1 and 2, on incubation for […], produced excellent inhibitory activity on the developing blood vessels. […] Several angiogenic parameters such as vessel size, vessel length and number of vessel branches were quantified using angioquant software as practiced in an earlier study[77] and represented as bar diagram (Fig. 5). […] This trend is also in tune with the DNA binding ability and anti-cancer activity of the complexes 1 and 2.
The Institutional Animal Care and Use Committee, an Association of New England Medical Center and Tufts (IACUC) and the National Institute of Health, USA, had established that a chick embryo that has not reached the 14th day of its developmental period would not experience pain and can, therefore, be used for experimentation without any ethical restrictions or prior protocol approval[95]–[97]. The anti-angiogenic activity was investigated on adopting the Chicken chorioallantoic membrane (CAM) assay. Briefly, specific pathogen-free (SPF) fertile chicken eggs were obtained from a government poultry farm. The eggs were incubated at 37 °C in a humid atmosphere. On the 5th day of incubation, the shell was cautiously broken using forceps. Precautions were taken to prevent puncture of any of the blood vessels during the transfer. The stock solutions were prepared by dissolving the complexes 1 and 2 in DMSO and then diluted suitably with the corresponding buffer to the required concentrations for all the experiments. The final DMSO concentration never exceeded 0.1%. Sterile filter paper discs (6 mm dia) soaked in solution of complexes (10 µM) were placed in 3 different positions over the generating blood vessels. For the control experiments sterile filter paper disks (6 mm dia) soaked with 10 µM of 0.1% of DMSO in PBS were used. Images of blood vessels (i.e., 0 h) were taken using stereo microscope (Nexius Zoom). The eggs were aseptically transferred in a humidified incubator at 37 °C and images were captured after 6 h incubation.

## CCCCCCCCCCCC[NH2+][Co-3]123([NH2+]CCCCCCCCCCCC)[O]c4ccccc4C=[N+]1c1ccccc1[N+]2=Cc1ccccc1[O]3.[O-][Cl+3]([O-])([O-])[O-] [Complex 2, trans-[Co(salophen)(DA)2](ClO4)]
CT-DNA
  cathodic peak current ipc: −3.622 × 10^−6 A
  cathodic peak potential Epc: −0.265 V
DNA
  effect on relative viscosity of DNA: the relative viscosity of DNA increased
[1]; Vero cells, MTT
  concentration up to which no significant toxicity: > 150 µM
[2]
  inhibition of vessel formation: profound inhibition of vessel formation
  angiogenic parameters (vessel size, vessel length, number of vessel branches): reduction in all of these parameters compared to control

## CCCCCCCCCCCC[NH2+][Co-3]123([NH2+]CCCCCCCCCCCC)[O]c4ccccc4C=[N+]1CC[N+]2=Cc1ccccc1[O]3.[O-][Cl+3]([O-])([O-])[O-] [Complex 1, trans-[Co(salen)(DA)2](ClO4)]
CT-DNA
  cathodic peak current ipc: −1.184 × 10^−5 A
  cathodic peak potential Epc: −0.490 V
DNA
  effect on relative viscosity of DNA: the relative viscosity of DNA increased
[1]
  concentration up to which no significant toxicity: > 150 µM
[2]
  inhibition of vessel formation: profound inhibition of vessel formation
  angiogenic parameters (vessel size, vessel length, number of vessel branches): reduction in all of these parameters compared to control
